Reference: ChEMBL document CHEMBL4007415, “Thieno[3,2-b]pyrrole-5-carboxamides as New Reversible Inhibitors of Histone Lysine Demethylase KDM1A/LSD1. Part 1: High-Throughput Screening and Preliminary Exploration” (J Med Chem, 2017)
Calls of active or inactive are those of the source. The calls are words filed in the database; no cut-off is given here.

Experiments:
[1] = target: T1, LSD1/CoREST complex (Homo sapiens, UniProt O60341)
Description: Inhibition of recombinant human KDM1A/CoREST complex expressed in Escherichia coli using biotinylated H3K4me1 peptide as substrate preincubated for 20 mins measured after 1 hr by TR-FRET assay

[2] = target: T2, Amine oxidase [flavin-containing] B (Homo sapiens, UniProt P27338)
T2 sequence (P27338 whole entry): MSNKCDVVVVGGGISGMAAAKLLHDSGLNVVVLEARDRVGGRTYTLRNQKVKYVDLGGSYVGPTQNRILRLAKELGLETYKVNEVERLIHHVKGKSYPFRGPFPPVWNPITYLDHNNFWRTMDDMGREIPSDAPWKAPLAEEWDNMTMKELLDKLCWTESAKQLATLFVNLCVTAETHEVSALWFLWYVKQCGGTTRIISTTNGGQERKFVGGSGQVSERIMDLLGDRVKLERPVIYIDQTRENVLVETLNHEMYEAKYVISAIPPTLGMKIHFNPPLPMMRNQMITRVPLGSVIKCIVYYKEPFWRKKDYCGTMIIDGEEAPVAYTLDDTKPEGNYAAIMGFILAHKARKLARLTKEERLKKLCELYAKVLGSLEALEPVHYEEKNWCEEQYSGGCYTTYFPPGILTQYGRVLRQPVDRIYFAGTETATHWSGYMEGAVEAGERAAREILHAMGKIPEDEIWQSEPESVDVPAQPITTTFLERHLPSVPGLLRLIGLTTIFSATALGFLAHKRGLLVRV
Description: Inhibition of recombinant human MAOB incubated for 15 mins measured after 30 mins by luminescence-Glo assay

[3] = target: T3, Lysine-specific histone demethylase 2 (Homo sapiens, UniProt Q8NB78)
T3 sequence (Q8NB78 whole entry): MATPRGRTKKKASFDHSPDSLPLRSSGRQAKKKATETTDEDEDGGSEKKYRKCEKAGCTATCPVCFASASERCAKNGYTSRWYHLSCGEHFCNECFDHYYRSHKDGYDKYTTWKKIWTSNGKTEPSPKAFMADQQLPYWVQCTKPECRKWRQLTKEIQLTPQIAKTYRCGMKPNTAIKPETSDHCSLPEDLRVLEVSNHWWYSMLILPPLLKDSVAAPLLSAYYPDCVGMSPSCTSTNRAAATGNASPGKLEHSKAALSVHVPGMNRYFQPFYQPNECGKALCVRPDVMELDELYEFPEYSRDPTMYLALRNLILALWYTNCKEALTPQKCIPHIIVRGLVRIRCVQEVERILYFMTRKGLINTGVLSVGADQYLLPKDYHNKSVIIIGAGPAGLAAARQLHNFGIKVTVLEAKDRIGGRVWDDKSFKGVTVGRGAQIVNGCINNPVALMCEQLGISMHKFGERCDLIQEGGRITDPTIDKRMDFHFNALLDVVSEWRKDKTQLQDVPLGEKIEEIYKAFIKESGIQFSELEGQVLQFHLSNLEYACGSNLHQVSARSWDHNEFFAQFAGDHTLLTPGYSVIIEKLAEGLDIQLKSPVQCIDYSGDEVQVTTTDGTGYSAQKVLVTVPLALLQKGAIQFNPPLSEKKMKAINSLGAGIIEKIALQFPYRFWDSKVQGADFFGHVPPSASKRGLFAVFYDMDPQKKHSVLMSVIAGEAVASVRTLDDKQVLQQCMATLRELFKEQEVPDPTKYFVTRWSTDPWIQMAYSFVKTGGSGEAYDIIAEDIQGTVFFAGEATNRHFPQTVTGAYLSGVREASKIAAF
Description: Inhibition of KDM1B (unknown origin)

[4] = target: T4, Amine oxidase [flavin-containing] A (Homo sapiens, UniProt P21397)
T4 sequence (P21397 whole entry): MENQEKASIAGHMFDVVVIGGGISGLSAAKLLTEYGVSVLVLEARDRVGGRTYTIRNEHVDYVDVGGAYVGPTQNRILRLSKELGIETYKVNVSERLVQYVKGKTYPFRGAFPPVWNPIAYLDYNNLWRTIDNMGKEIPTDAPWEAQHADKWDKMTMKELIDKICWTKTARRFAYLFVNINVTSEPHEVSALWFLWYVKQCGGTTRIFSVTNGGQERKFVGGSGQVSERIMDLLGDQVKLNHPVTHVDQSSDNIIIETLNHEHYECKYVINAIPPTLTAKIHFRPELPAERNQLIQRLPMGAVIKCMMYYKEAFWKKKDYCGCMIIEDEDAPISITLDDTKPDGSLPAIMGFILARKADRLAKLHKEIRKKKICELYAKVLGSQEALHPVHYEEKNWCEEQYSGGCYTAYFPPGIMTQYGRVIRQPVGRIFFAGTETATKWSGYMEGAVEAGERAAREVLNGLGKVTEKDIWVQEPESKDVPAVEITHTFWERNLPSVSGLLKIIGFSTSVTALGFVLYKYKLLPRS
Description: Inhibition of recombinant human MAOA incubated for 15 mins measured after 30 mins by luminescence-Glo assay

[5] = target: Lysine-specific histone demethylase 1A (Homo sapiens) (UniProt O60341); assay: Inhibition of KDM1A in human THP1 cells assessed as increase in CD14 mRNA expression level at 1 uM after 24 hrs by qRT-PCR analysis relative to control; format: cell-based
[6] = target: Lysine-specific histone demethylase 1A (Homo sapiens) (UniProt O60341); assay: Inhibition of KDM1A in human THP1 cells assessed as increase in CD86 mRNA expression level at 5 uM after 24 hrs by qRT-PCR analysis relative to control; format: cell-based
[7] = tested on: THP-1; assay: Anticlonogenic activity against human THP1 cells assessed as inhibition of colony formation at 5 uM after 13 days relative to control; format: functional; settings: THP-1, 312 h
[8] = tested on: THP-1; assay: Induction of apoptosis in human THP1 cells at 1 uM after 72 hrs by Annexin V-propidium iodide staining based flow cytometry; format: functional, cell-based
[9] = target: Lysine-specific histone demethylase 1A (Homo sapiens) (UniProt O60341); assay: Inhibition of KDM1A in human THP1 cells assessed as increase in CD11b mRNA expression level at 1 uM after 24 hrs by qRT-PCR analysis relative to control; format: cell-based
[10] = tested on: THP-1; assay: Induction of cell death in human THP1 cells at 1 uM after 72 hrs by propidium iodide staining based flow cytometry; format: functional
[11] = target: T1, LSD1/CoREST complex; remark: listed apart in the source
Description: Inhibition of recombinant human KDM1A/CoREST complex expressed in Escherichia coli using H3K4me1 peptide as substrate preincubated for 15 mins with enzyme followed by substrate addition measured after 12 mins by Amplex Ultra Red reagent based HRP enzyme coupled assay

[12] = target: T1, LSD1/CoREST complex; assay: Inhibition of recombinant human KDM1A/CoREST complex expressed in Escherichia coli using biotinylated H3K4me1 peptide as substrate preincubated for 10 mins with enzyme followed by substrate addition measured after 1 hr by TR-FRET HTS assay
[13] = target: T1, LSD1/CoREST complex; assay: Competitive inhibition of recombinant human KDM1A/CoREST complex expressed in Escherichia coli using H3K4me1 peptide as substrate preincubated for 15 mins followed by substrate addition measured for 12 mins by Lineweaver-Burk plot analysis
[14] = tested on: CC(=O)c1ccc(CN2CCC3(CCNCC3)C2)cc1; settings: Homo sapiens
Description: Inhibition of recombinant human KDM1A/CoREST complex expressed in Escherichia coli assessed as Km for substrate using H3K4me1 peptide as substrate preincubated for 15 mins followed by substrate addition measured for 12 mins by Lineweaver-Burk plot analysis

[15] = tested on: THP-1; assay: Induction of apoptosis in human THP1 cells at 0.5 uM after 72 hrs by Annexin V-propidium iodide staining based flow cytometry; format: functional, cell-based
[16] = tested on: THP-1; assay: Anticlonogenic activity against human THP1 cells assessed as inhibition of colony formation at 0.5 uM after 13 days relative to control; format: functional; settings: THP-1, 312 h
[17] = tested on: THP-1; assay: Induction of cell death in human THP1 cells at 0.5 uM after 72 hrs by propidium iodide staining based flow cytometry; format: functional

| Compound | IC50 [1] [µM] | also measured |
| --- | --- | --- |
| Cn1c(C(=O)Nc2ccccc2)cc2occc21 | 89.5 |  |
| NCCn1c(C(=O)Nc2ccccc2)cc2sccc21 | 48.1 |  |
| COCc1cccc(NC(=O)c2cc3sccc3n2C)c1 |  | IC50 [2]: 56.8 µM; IC50 [3]: > 100 µM; IC50 [4]: > 100 µM |
| Cn1cnc2c1cc(C(=O)Nc1ccccc1)n2C | > 100 |  |
| Cn1c(C(=O)Nc2ccccc2)cc2sc(Br)cc21 | > 100 |  |
| Cn1c(C(=O)Nc2ccccc2)c(I)c2sccc21 | > 100 |  |
| Cn1c(C(=O)Nc2ccccc2)cc2scnc21 | > 100 |  |
| Cn1c(C(=O)Nc2ccccc2)nc2sccc21 | > 100 |  |
| CN(C)Cc1c(C(=O)Nc2ccccc2)n(C)c2ccsc12 | > 100 |  |
| Cn1c(C(=O)Nc2ccccc2)cc2sccc21 | 25.7 |  |
| Cn1c(C(=O)Nc2cccc(F)c2)cc2sccc21 | 22.2 |  |
| Cn1ncc2cc(C(=O)Nc3ccccc3)n(C)c21 | > 100 |  |
| Cn1c(C(=O)Nc2ccccc2)c(I)c2sc(I)cc21 | > 100 |  |
| Cn1c(C(=O)Nc2cccc(Br)c2)cc2sccc21 | > 100 |  |
| Cn1c(C(=O)Nc2cccc(COc3ccc(OC4CCNCC4)cc3)c2)cc2sccc21 | 0.16 to 0.162 | IC50 [2]: 7.16 µM; IC50 [3]: > 100 µM; fold change (FC) [5]: 4.79; fold change (FC) [6]: 14.3; inhibition at 5 µM [7]: 29.5%; Activity [8]: inactive; IC50 [4]: > 100 µM; fold change (FC) [9]: 4.61; Activity [10]: inactive |
| CC(=O)c1ccc(CN2CCC3(CCNCC3)C2)cc1 | 8.1 | IC50 [2]: 42.5 µM; IC50 [11]: 82.4 µM; IC50 [12]: 5 µM; IC50 [4]: > 100 µM; Ki [13]: 48.4 µM |
| Cn1c(C(=O)Nc2ncccn2)cc2sccc21 | > 100 |  |
| CN1CCC(COc2cccc(NC(=O)c3cc4sccc4n3C)c2)CC1 | 2.2 |  |
| Cn1c(C(=O)Nc2ccccc2)c(Cl)c2sccc21 | > 100 |  |
| CSCc1cccc(NC(=O)c2cc3sccc3n2C)c1 | 7.4 |  |
| Cc1nc(-n2nc(-c3cccs3)cc2NC(=O)COc2ccccc2F)[nH]c(=O)c1C |  | IC50 [12]: 0.76 µM |

| Compound | IC50 [1] [µM] | also measured |
| --- | --- | --- |
| Cc1csc2cc(C(=O)Nc3ccccc3)n(C)c12 | > 100 |  |
| Cn1c(C(=O)Nc2cccc(Oc3ccncc3)c2)cc2sccc21 | 89.9 |  |
| Cn1c(C(=O)Nc2cccc(Cl)c2)cc2sccc21 | 18.7 |  |
| Cc1oc(-c2ccc(Cl)cc2[N+](=O)[O-])cc1C(=O)Nc1ccccc1 |  | IC50 [12]: 3.5 µM |
| Cn1c(C(=O)Nc2cccc(OCc3ccncc3)c2)cc2sccc21 | 7.2 |  |
| Cn1c(C(=O)Nc2ccccc2)cc2ccsc21 | 38.8 |  |
| COc1cccc(NC(=O)c2cc3sccc3n2C)c1 | 26.5 |  |
| Cc1c(C(=O)Nc2ccccc2)n(C)c2ccsc12 | > 100 |  |
| CN(C)Cc1cccc(NC(=O)c2cc3sccc3n2C)c1 | 16.7 |  |
| Cc1sc2cc(C(=O)Nc3ccccc3)n(C)c2c1C | > 100 |  |
| Cn1c(C(=O)Nc2cccnc2)cc2sccc21 | 61.5 |  |
| Cn1c(C(=O)Nc2ccncc2)cc2sccc21 | > 100 |  |
| CN(C)Cc1cc2c(cc(C(=O)Nc3ccccc3)n2C)s1 | > 100 |  |
| O=C(Nc1ccccc1)c1cc2sccc2n1-c1ccccc1 | > 100 |  |
| Cn1c(C(=O)Nc2ccccc2)cc2sc(F)cc21 | > 100 |  |
| Cn1c(C(=O)Nc2cccc(C(N)=O)c2)cc2sccc21 | 97.3 |  |
| CN(C)c1cccc(NC(=O)c2cc3sccc3n2C)c1 | 29.6 |  |
| O=C(Nc1ccccc1)c1cc2sccc2s1 | > 100 |  |
| Cn1c(C(=O)Nc2ccccn2)cc2sccc21 | > 100 |  |
| CN1CCN(c2cccc(NC(=O)c3cc4sccc4n3C)c2)CC1 | 21.5 |  |
| Cn1c(C(=O)Nc2cccc(COc3ccc(O)cc3)c2)cc2sccc21 | 25.2 |  |

| Compound | IC50 [1] [µM] | also measured |
| --- | --- | --- |
| Cn1c(C(=O)Nc2ccccc2)cc2ncsc21 | > 100 |  |
| Cn1c(C(=O)Nc2ccncn2)cc2sccc21 | > 100 |  |
| CCn1c(C(=O)Nc2ccccc2)cc2sccc21 | 9.3 |  |
| O=C(Nc1ccccc1)c1cc2sccc2n1S(=O)(=O)c1ccccc1 | > 100 |  |
| LSD1/CoREST complex (Homo sapiens) (from UniProt O60341+Q9UKL0) |  | Km [14]: 1.4 µM |
| O=C(Nc1ccccc1)c1cc2sccc2[nH]1 | > 100 |  |
| Cn1ccc2c1cc(C(=O)Nc1ccccc1)n2C | > 100 |  |
| Cn1c(C(=O)Nc2ccccc2)cc2sc(I)cc21 | > 100 |  |
| Cn1c(C(=O)Nc2cccc(CO)c2)cc2sccc21 | 52.3 |  |
| Cc1cc2c(cc(C(=O)Nc3ccccc3)n2C)s1 | > 100 |  |
| Cn1cnc2[nH]c(C(=O)Nc3ccccc3)cc21 | > 100 |  |
| Cn1c(C(=O)Nc2cccc(COc3ccncc3)c2)cc2sccc21 | 9.4 |  |
| COCc1c(C(=O)Nc2ccccc2)n(C)c2ccsc12 | > 100 |  |
| Cn1c(C(=O)Nc2cccc(CN3CCOCC3)c2)cc2sccc21 | 11.1 |  |
| Cn1c(C(=O)Nc2cccc(COc3ccccc3)c2)cc2sccc21 | > 100 |  |
| CN1CCC(Oc2ccc(OCc3cccc(NC(=O)c4cc5sccc5n4C)c3)cc2)CC1 | 0.44 to 0.442 | IC50 [2]: 7.6 µM; IC50 [3]: > 100 µM; fold change (FC) [5]: 2.76; Activity [8]: inactive; IC50 [4]: > 100 µM; fold change (FC) [9]: 4.76; Activity [10]: inactive |
| CCCn1c(C(=O)Nc2ccccc2)cc2sccc21 | 53.2 |  |
| O=C(Nc1ccccc1)c1ccc2sccc2c1 | > 100 |  |
| NC1CCC(N[C@@H]2C[C@H]2c2ccccc2)CC1 (stereo partly drawn) |  | Activity [15]: inactive; inhibition at 0.5 µM [16]: 70%; Activity [17]: inactive; IC50 [3]: 43.4 µM; IC50 [4]: 48.3 µM |
